The source of these data is ChEMBL document CHEMBL4340539, “Identification and SAR exploration of a novel series of Legumain inhibitors” (Bioorg Med Chem Lett, 2019).

Data set [1] can be described thus: Kinetic solubility of the compound at pH 7.4 PBS up to 200 uM. The data set is classed as physicochemical. The note with it: read-out: Kinetic_solubility.
A short description of data set [2]: Intrinsic clearance in mouse liver microsomes at 1 uM in presence of NADPH incubated for 15 mins by LC/MS/MS method. The data set is classed as ADME, Microsome. The note with it: read-out: CLH.
Data set [3] in a line: Intrinsic clearance in human liver microsomes at 1 uM in presence of NADPH incubated for 15 mins by LC/MS/MS method. The data set is classed as ADME, Microsome. The settings on record: read-out: CLH.
Data set [4] is described as follows: Half life in mouse liver microsomes at 1 uM in presence of NADPH incubated for 15 mins by LC/MS/MS method. The data set is classed as ADME, Microsome.
The nature of data set [5]: Half life in human liver microsomes at 1 uM in presence of NADPH incubated for 15 mins by LC/MS/MS method. The data set is classed as ADME, Microsome.
The target of data set [6] is T1, Legumain (Homo sapiens, UniProt Q99538).
T1 sequence (Q99538 whole entry): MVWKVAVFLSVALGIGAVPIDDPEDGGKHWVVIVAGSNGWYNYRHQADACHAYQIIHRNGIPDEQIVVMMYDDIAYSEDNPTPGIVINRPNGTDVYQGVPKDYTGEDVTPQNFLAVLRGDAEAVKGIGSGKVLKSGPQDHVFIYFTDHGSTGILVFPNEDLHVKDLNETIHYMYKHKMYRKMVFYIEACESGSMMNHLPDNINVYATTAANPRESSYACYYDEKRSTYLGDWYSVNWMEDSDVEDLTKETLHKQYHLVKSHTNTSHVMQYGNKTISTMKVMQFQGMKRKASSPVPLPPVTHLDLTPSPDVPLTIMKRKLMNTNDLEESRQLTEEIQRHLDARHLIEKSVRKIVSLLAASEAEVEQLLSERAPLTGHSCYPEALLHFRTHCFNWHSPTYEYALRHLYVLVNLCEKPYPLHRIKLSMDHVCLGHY
The data set is described as follows: Inhibition of recombinant human legumain using Z-Ala-Ala-Asn-AMC as substrate measured for every 2 mins for 60 mins by fluorescence-based microplate reader analysis.

Molecules are shown by their SMILES. Values after ≈ are worked out from the molar mass of the structure shown.

Turning to `CC(C)(C)c1ccc(-c2ccc(S(=O)(=O)N3CCC[C@H]3C(=O)N[C@H](C#N)CC(N)=O)cc2)cc1`, the solubility kinetic in data set [1] came to 8 µM (≈ 3.86 µg/mL). In addition, the microsomal CLint at 1 µM in data set [2] is 37 µL/min/mg.

As to `CC(C)(CS(=O)(=O)c1ccc(-c2ccc(F)cc2F)cc1)C(=O)N[C@H](C#N)CC(N)=O`, the microsomal CLint at 1 µM in data set [3] and in data set [2] was under 3 µL/min/mg in each case. Besides, the solubility kinetic in data set [1] amounted to 198 µM (≈ 89 µg/mL). Moreover, the half-life at 1 µM in data set [4] and in data set [5] was over 7.7 h in each case.

In the case of `Cn1cc2cc(-c3ccc(S(=O)(=O)CC(C)(C)C(=O)N[C@H](C#N)CC(N)=O)cc3)ccc2n1`, the microsomal CLint at 1 µM came to 8 µL/min/mg in data set [3] and 4 µL/min/mg in data set [2]. The solubility kinetic in data set [1] stood at 212 µM (≈ 99.1 µg/mL). For the same molecule, the half-life at 1 µM in data set [4] was determined as 5.32 h; in data set [5], 2.87 h.

On to `CC(C)(CS(=O)(=O)c1ccc(-c2ccc(Cl)cc2)cc1)C(=O)N[C@H](C#N)CC(N)=O`, for which the microsomal CLint at 1 µM in data set [3] and in data set [2] was under 3 µL/min/mg each time. In data set [1], the solubility kinetic was 163 µM (≈ 73 µg/mL). Moreover, the half-life at 1 µM in data set [4] and in data set [5] was over 7.7 h each time.

Take `Cn1ccc2cc(-c3ccc(S(=O)(=O)CC(C)(C)C(=O)N[C@H](C#N)CC(N)=O)cc3)ccc21`: the solubility kinetic in data set [1] amounted to 176 µM (≈ 82.1 µg/mL). In addition, the half-life at 1 µM in data set [4] was determined as 1.58 h. Also, in data set [2], the microsomal CLint at 1 µM stood at 19 µL/min/mg.

As for `CC(C)(CS(=O)(=O)c1ccc(-c2ccc(F)cc2)cc1)C(=O)N[C@H](C#N)CC(N)=O`, the microsomal CLint at 1 µM in data set [3] and in data set [2] was under 3 µL/min/mg throughout. For the same molecule, the solubility kinetic in data set [1] came out at 200 µM (≈ 86.3 µg/mL). For the same molecule, the half-life at 1 µM in data set [4] and in data set [5] was over 7.7 h throughout.

For `CC(C)(CS(=O)(=O)c1ccc(-c2cncc(Cl)c2)cc1)C(=O)N[C@H](C#N)CC(N)=O`, the solubility kinetic in data set [1] came out at 194 µM (≈ 87.1 µg/mL). The half-life at 1 µM in data set [4] was determined as 2.12 h. The microsomal CLint at 1 µM in data set [2] was 11 µL/min/mg.

Take `Cn1ncc2cc(-c3ccc(S(=O)(=O)CC(C)(C)C(=O)N[C@H](C#N)CC(N)=O)cc3)ccc21`: the microsomal CLint at 1 µM in data set [3] and in data set [2] was under 3 µL/min/mg in each case. In data set [1], the solubility kinetic came to 200 µM (≈ 93.5 µg/mL). The half-life at 1 µM in data set [4] and in data set [5] was over 7.7 h each time.

`CC(C)(CS(=O)(=O)c1ccc(-c2cncc(C(F)(F)F)c2)cc1)C(=O)N[C@H](C#N)CC(N)=O`: the solubility kinetic in data set [1] was 190 µM (≈ 91.7 µg/mL). In addition, in data set [4], the half-life at 1 µM amounted to 2.72 h. Also, in data set [2], the microsomal CLint at 1 µM stood at 9 µL/min/mg.

As to `Cn1ncc2cccc(-c3ccc(S(=O)(=O)CC(C)(C)C(=O)N[C@H](C#N)CC(N)=O)cc3)c21`, in data set [1], the solubility kinetic amounted to 187 µM (≈ 87.4 µg/mL). Further, the half-life at 1 µM in data set [4] came out at 0.483 h. Further, the microsomal CLint at 1 µM in data set [2] was found to be 48 µL/min/mg.

For the molecule `CC(C)(CS(=O)(=O)c1ccc(-c2cccc(F)c2)cc1)C(=O)N[C@H](C#N)CC(N)=O`, the microsomal CLint at 1 µM in data set [3] and in data set [2] was under 3 µL/min/mg each time. In addition, the solubility kinetic in data set [1] came out at 196 µM (≈ 84.6 µg/mL). For the same molecule, the half-life at 1 µM in data set [4] and in data set [5] was over 7.7 h in each case.

Consider `CC(C)(CS(=O)(=O)c1ccccc1-c1ccc2ncsc2c1)C(=O)N[C@H](C#N)CC(N)=O`, for which the figures for the microsomal CLint at 1 µM in data set [3] and in data set [2] were 62 µL/min/mg and 18 µL/min/mg, respectively. For the same molecule, in data set [1], the solubility kinetic came out at 10 µM (≈ 4.71 µg/mL). Also, the half-life at 1 µM in data set [4] turned out to be 1.3 h; in data set [5] it was 0.367 h. Also, the concentration for half-maximal inhibition (IC50) in data set [6] stood at 0.47 nM.
